For the data set the following is noted: 101.33 kPa, Liquid, Vibrating tube method.

Molecules are shown by their SMILES. Numbers after ± are expanded uncertainties.

Take `OC(C(F)(F)F)C(F)(F)F` [1,1,1,3,3,3-hexafluoro-2-propanol]: under “298.15 K”, the mass density worked out at 1604.84 ± 0.78 kg/m3.
On to `CO` [methanol], for which the mass density (298.15 K) stood at 786.58 ± 0.23 kg/m3.
On to `FC(F)(F)C1(F)C(F)(F)C(F)(F)C(F)(F)C(F)(F)C1(F)F` [perfluoro(methylcyclohexane)], for which the mass density (278.15 K) worked out at 1841 ± 1 kg/m3; the mass density (283.15 K) worked out at 1827.6 ± 1 kg/m3; the mass density (288.15 K) was 1814 ± 1 kg/m3; the mass density (293.15 K) was 1800.4 ± 1 kg/m3; the mass density (298.15 K) amounted to 1786.6 ± 1 kg/m3; the mass density (303.15 K) is 1772.7 ± 1 kg/m3. Besides, the mass density (308.15 K) is listed as 1758.7 ± 0.9 kg/m3; the mass density (313.15 K) is given as 1744.5 ± 0.9 kg/m3; the mass density (318.15 K) was determined as 1730.3 ± 0.9 kg/m3; the mass density (323.15 K) was determined as 1715.8 ± 0.9 kg/m3; the mass density (328.15 K) is 1701.2 ± 0.9 kg/m3; the mass density (333.15 K) is 1686.4 ± 0.9 kg/m3. The mass density reads like this: (338.15 K) 1671.5 ± 0.9 kg/m3; (343.15 K) 1656.3 ± 0.8 kg/m3.
On to `FC(F)(F)C(F)(F)C(F)(F)C(F)(F)C(F)(F)C(F)(F)F` [perfluorohexane], for which the mass density was 1742.5 ± 0.9 kg/m3 (278.15 K); 1728.3 ± 0.9 kg/m3 (283.15 K); 1713.8 ± 0.9 kg/m3 (288.15 K); 1699.2 ± 0.9 kg/m3 (293.15 K); 1684.4 ± 0.9 kg/m3 (298.15 K); 1669.4 ± 0.9 kg/m3 (303.15 K). The mass density by setting is: (308.15 K) 1654.1 ± 0.8 kg/m3; (313.15 K) 1638.6 ± 0.8 kg/m3; (318.15 K) 1622.9 ± 0.8 kg/m3; (323.15 K) 1606.4 ± 0.8 kg/m3; (328.15 K) 1590.5 ± 0.8 kg/m3.

The values above are taken from the NIST ThermoML archive (doi:10.1021/je500455u).
